The numbers were not newly measured in patent publication US20240293350A1, “DEVELOPMENT OF AN INNOVATIVE INHALATION FORMULATION OF NAFAMOSTAT MESYLATE FOR THE MANAGEMENT OF COVID-19” (EGE UNIVERSITESI, priority 2020, published 2024), which cites them from elsewhere.

Counter-ions that a name gives are not always drawn.

In series [1] the test system is SARS-COV-2. The following applies: Simian Vero E6 cells infected with SARS-COV-2, cell culture.
Another series relates to NL63 virus. The conditions noted are these: after infection with NL63 virus, gut-on-a-chip model; compared with Remdesivir.
The test system of a further series is coronavirus. The conditions noted are these: primary human mucociliary airway epithelial cells.
In series [2] the test system is SARS-COV-2. The following applies: administered after infection with SARS-COV-2; compared with Remdesivir.

In the case of `N=C(N)c1ccc2cc(OC(=O)c3ccc(N=C(N)N)cc3)ccc2c1` [NM, nafamostat mesylate], in the series on SARS-COV-2 [1], the “prevention of infection of cells” value is recorded as “prevent cells from being infected with the virus”. Further, the effectiveness after infection result in the series on NL63 virus is recorded as “much more effective after infection with the NL63 virus than Remdesivir”. Moreover, in the series on coronavirus, the antiviral activity result was “demonstrated antiviral activity”. For the same compound, the viral load result in the series on SARS-COV-2 [2] is “decreased the viral load more than Remdesivir”.
